Results on 18 molecules are retold here after US20250136606A1, “MODULATORS OF TRPML, THEIR COMPOSITIONS AND METHODS OF USE” (Caraway Therapeutics, Inc., priority 2021, published 2025).

SMILES strings stand for the structures.

Holding throughout (assay type): cell-based
Conditions in all cases: fluorescent calcium assay

The target in one experiment is TRPML1 (Homo sapiens, UniProt Q9GZU1). Briefly: Fluorescent TRPML1 assay (Fluo4-AM calcium fluorescence in doxycycline-induced HEK-293 Trex cells). An outline of the steps:
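HEK-293 Trex cells stably expressing surface-directed mutant human TRPML1, induced with 0.5 µg/mL doxycycline overnight, were loaded with 1 µM Fluo4-AM and added to compound (6 nM–20 µM final, half-log steps, triplicate) in Ringer's with 10 mM calcium. Fluorescence ex 480/em 540; EC50 by non-linear regression versus plate controls.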

Another experiment has as its target T1, TRPML2 (Homo sapiens, UniProt Q8IZK6).
T1 construct: expressed in transfected cells
T1 sequence (Q8IZK6 1-566): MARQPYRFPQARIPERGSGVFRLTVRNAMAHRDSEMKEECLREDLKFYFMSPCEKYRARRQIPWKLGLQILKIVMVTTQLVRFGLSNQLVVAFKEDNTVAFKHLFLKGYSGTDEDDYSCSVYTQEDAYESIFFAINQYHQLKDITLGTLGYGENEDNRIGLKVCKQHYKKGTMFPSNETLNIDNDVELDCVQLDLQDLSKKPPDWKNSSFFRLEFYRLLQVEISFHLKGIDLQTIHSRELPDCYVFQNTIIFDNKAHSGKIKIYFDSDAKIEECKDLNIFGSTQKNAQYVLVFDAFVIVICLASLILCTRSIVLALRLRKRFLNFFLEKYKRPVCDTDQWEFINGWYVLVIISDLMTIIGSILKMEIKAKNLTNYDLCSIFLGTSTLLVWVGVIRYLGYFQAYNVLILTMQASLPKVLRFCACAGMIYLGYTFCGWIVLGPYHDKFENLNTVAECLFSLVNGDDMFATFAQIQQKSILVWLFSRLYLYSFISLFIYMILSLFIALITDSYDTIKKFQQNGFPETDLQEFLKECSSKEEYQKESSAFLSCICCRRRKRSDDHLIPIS
Briefly: Fluorescent TRPML2 assay (performed as for TRPML1, substituting the TRPML2 subtype). An outline of the steps:
(§1)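 Agonist activity is scored as percent of plate controls from Fluo4 fluorescence after dye-loaded, doxycycline-induced HEK-293 Trex cells meet compound in high-calcium (10 mM) Ringer's. Compounds run in half-log dilutions from 20 micromolar final, in triplicate.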

The target in another experiment is T2, TRPML3 (Homo sapiens, UniProt Q8TDD5).
T2 construct: expressed in transfected cells
T2 sequence (Q8TDD5 1-553): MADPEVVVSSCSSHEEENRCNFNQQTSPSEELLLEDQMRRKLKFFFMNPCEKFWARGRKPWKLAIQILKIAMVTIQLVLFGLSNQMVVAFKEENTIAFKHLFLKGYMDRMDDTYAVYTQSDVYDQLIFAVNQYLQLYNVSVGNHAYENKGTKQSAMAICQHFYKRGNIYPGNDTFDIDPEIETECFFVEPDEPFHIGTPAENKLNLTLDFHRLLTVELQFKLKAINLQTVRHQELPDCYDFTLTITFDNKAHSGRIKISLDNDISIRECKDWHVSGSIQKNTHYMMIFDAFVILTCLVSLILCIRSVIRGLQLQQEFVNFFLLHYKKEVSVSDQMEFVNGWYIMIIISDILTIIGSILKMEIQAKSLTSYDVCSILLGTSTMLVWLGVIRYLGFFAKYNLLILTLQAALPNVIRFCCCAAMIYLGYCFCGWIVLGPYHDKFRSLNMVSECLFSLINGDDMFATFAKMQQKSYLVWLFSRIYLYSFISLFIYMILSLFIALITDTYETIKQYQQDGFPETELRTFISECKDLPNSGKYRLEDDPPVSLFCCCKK
Briefly: Fluorescent TRPML3 assay (performed as for TRPML1, substituting the TRPML3 subtype). The method, boiled down: as §1

Chain of TRPML1 (Q9GZU1 whole entry L15A/L16A/L577A/L578A, form open): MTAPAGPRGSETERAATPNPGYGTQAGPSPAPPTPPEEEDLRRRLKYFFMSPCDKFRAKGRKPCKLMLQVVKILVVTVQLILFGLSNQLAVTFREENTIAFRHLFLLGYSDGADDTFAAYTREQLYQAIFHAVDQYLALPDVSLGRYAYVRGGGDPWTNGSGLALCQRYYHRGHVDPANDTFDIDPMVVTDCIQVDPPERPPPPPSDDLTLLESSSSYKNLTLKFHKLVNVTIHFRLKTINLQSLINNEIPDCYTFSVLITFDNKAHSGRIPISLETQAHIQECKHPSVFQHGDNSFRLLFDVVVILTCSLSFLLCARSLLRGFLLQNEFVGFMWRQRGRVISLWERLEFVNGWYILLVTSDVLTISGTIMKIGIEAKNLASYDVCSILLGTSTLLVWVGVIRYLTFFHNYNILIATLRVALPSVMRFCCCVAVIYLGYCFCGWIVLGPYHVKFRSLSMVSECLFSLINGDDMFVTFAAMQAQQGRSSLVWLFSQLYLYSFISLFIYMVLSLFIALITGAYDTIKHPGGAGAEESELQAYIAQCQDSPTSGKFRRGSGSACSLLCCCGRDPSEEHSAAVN

In the case of `C[C@H]1CN(C(=O)OC(C)(C)C)CCN1c1ncnc2c1c(C1CC1)cn2-c1cc(C#N)n(C)c1` [Compound 445, tert-butyl (S)-4-(7-(5-cyano-1-methyl-1H-pyrrol-3-yl)-5-cyclopropyl-7H-pyrrolo[2,3-d]pyrimidin-4-yl)-3-methylpiperazine-1-carboxylate], the EC50 (as a rule, the concentration that produces a half-maximal response) at TRPML1 was less than 100 nM; on TRPML2 it was 100 to 500 nM; on TRPML3, less than 100 nM.
In the case of `C[C@H]1CN(C(=O)OC(C)(C)C)CCN1c1nccc2c1c(C1CC1)cn2-c1cc(C#N)ccn1` [Compound 446, tert-butyl (S)-4-(1-(4-cyanopyridin-2-yl)-3-cyclopropyl-1H-pyrrolo[3,2-c]pyridin-4-yl)-3-methylpiperazine-1-carboxylate], the EC50 on TRPML1 was less than 100 nM; at TRPML2 it was 100 to 500 nM; on TRPML3, less than 100 nM.
As to `C[C@H]1CN(C(=O)OC(C)(C)C)CCN1c1ncnc2c1c(-c1ccccc1F)cn2-c1cc(C#N)cnn1` [Compound 447, tert-butyl (S)-4-(7-(5-cyanopyridazin-3-yl)-5-(2-fluorophenyl)-7H-pyrrolo[2,3-d]pyrimidin-4-yl)-3-methylpiperazine-1-carboxylate], the EC50 at TRPML1, on TRPML2 and on TRPML3 was less than 100 nM throughout.
`C[C@H]1CN(C(=O)OC(C)(C)C)CCN1c1ncnc2c1c(-c1ccccc1F)cn2-c1cnnc(C#N)c1` [Compound 448, tert-butyl (S)-4-(7-(6-cyanopyridazin-4-yl)-5-(2-fluorophenyl)-7H-pyrrolo[2,3-d]pyrimidin-4-yl)-3-methylpiperazine-1-carboxylate]: the EC50 at TRPML1 was less than 100 nM; at TRPML2, 100 to 500 nM; on TRPML3, less than 100 nM.
As for `C[C@H]1CN(C(=O)OC(C)(C)C)CCN1c1nccc2c1c(-c1ccccc1F)cn2-c1cc(C#N)ccn1` [Compound 449, tert-butyl (S)-4-(1-(4-cyanopyridin-2-yl)-3-(2-fluorophenyl)-1H-pyrrolo[3,2-c]pyridin-4-yl)-3-methylpiperazine-1-carboxylate], the EC50 was less than 100 nM at TRPML1, 100 to 500 nM on TRPML2 and less than 100 nM on TRPML3.
Take `C[C@H]1CN(C(=O)OC(C)(C)C)CCN1c1ncnc2c1c(-c1ccccc1F)cn2-c1ccnnc1` [Compound 451, tert-butyl (S)-4-(5-(2-fluorophenyl)-7-(pyridazin-4-yl)-7H-pyrrolo[2,3-d]pyrimidin-4-yl)-3-methylpiperazine-1-carboxylate]: the EC50 on TRPML1 was 100 to 500 nM; at TRPML2, more than 2000 nM; at TRPML3, 100 to 500 nM.
With `C[C@@H]1CN(c2ncnc3c2c(-c2ccccc2F)cn3-c2cc(F)ccn2)[C@@H](C)CN1C(=O)OC(C)(C)C` [Compound 452, tert-butyl (2R,5S)-4-(5-(2-fluorophenyl)-7-(4-fluoropyridin-2-yl)-7H-pyrrolo[2,3-d]pyrimidin-4-yl)-2,5-dimethylpiperazine-1-carboxylate], the EC50 at TRPML1 is less than 100 nM; at TRPML2 it was 100 to 500 nM; on TRPML3, less than 100 nM.
`C[C@H]1CN(C(=O)OC(C)(C)C)CCN1c1ncnc2c1c(C1CC1)cn2-c1cc(F)ccn1` [Compound 453, tert-butyl (S)-4-(5-cyclopropyl-7-(4-fluoropyridin-2-yl)-7H-pyrrolo[2,3-d]pyrimidin-4-yl)-3-methylpiperazine-1-carboxylate]: the EC50 on TRPML1 was less than 100 nM; at TRPML2, 100 to 500 nM; on TRPML3, less than 100 nM.
Regarding `C[C@@H]1CN(c2ncnc3c2c(-c2ccccc2F)cn3-c2cc(Cl)ccn2)[C@@H](C)CN1C(=O)OC(C)(C)C` [Compound 454, tert-butyl (2R,5S)-4-(7-(4-chloropyridin-2-yl)-5-(2-fluorophenyl)-7H-pyrrolo[2,3-d]pyrimidin-4-yl)-2,5-dimethylpiperazine-1-carboxylate], the EC50 on TRPML1, on TRPML2 and on TRPML3 was less than 100 nM each time.
As to `CC(C)(C)OC(=O)N1CCN(c2ncnc3c2c(-c2ccccc2F)cn3-c2ncc(C#N)s2)CC1` [Compound 455, tert-butyl 4-(7-(5-cyanothiazol-2-yl)-5-(2-fluorophenyl)-7H-pyrrolo[2,3-d]pyrimidin-4-yl)piperazine-1-carboxylate], the 50% effective concentration (EC50) is less than 100 nM on TRPML1, 100 to 500 nM at TRPML2 and less than 100 nM at TRPML3.
On to `C[C@H]1CN(C(=O)OC(C)(C)C)CCN1c1ncnc2c1c(C1CC1)cn2-c1ccc(C#N)n1C` [Compound 456, tert-butyl (S)-4-(7-(5-cyano-1-methyl-1H-pyrrol-2-yl)-5-cyclopropyl-7H-pyrrolo[2,3-d]pyrimidin-4-yl)-3-methylpiperazine-1-carboxylate], for which the values for the EC50 at TRPML1, on TRPML2 and on TRPML3 were 500 to 2000 nM, 500 to 2000 nM and 100 to 500 nM, respectively.
For the molecule `C[C@H]1CN(C(=O)OC(C)(C)C)CCN1c1ncnc2c1c(C1CC1)cn2-c1cc(Cl)ccn1` [Compound 457, tert-butyl(S)-4-(7-(4-chloropyridin-2-yl)-5-cyclopropyl-7H-pyrrolo[2,3-d]pyrimidin-4-yl)-3-methylpiperazine-1-carboxylate], the concentration for a half-maximal effect (EC50) at TRPML1, at TRPML2 and on TRPML3 was less than 100 nM throughout.
In the case of `Cc1nccnc1-c1cn(-c2cc(C#N)ccn2)c2ncnc(N3C[C@@H](C)N(C(=O)OC(C)(C)C)C[C@@H]3C)c12` [Compound 458, tert-butyl (2R,5S)-4-(7-(4-cyanopyridin-2-yl)-5-(3-methylpyrazin-2-yl)-7H-pyrrolo[2,3-d]pyrimidin-4-yl)-2,5-dimethylpiperazine-1-carboxylate], the results for the EC50 on TRPML1, at TRPML2 and on TRPML3 were less than 100 nM, 100 to 500 nM and 100 to 500 nM, respectively.
As for `C[C@@H]1CN(c2ncnc3c2c(-c2ccccc2F)cn3-c2nccc(C#N)n2)[C@@H](C)CN1C(=O)OC(C)(C)C` [Compound 460, tert-butyl (2R,5S)-4-(7-(4-cyanopyrimidin-2-yl)-5-(2-fluorophenyl)-7H-pyrrolo[2,3-d]pyrimidin-4-yl)-2,5-dimethylpiperazine-1-carboxylate], the results for the EC50 on TRPML1, at TRPML2 and at TRPML3 were less than 100 nM, 100 to 500 nM and less than 100 nM, respectively.
`Cc1nccnc1-c1cn(-c2cccc(Cl)c2)c2ncnc(N3C[C@@H](C)N(C(=O)OC(C)(C)C)C[C@@H]3C)c12` [Compound 461, tert-butyl (2R,5S)-4-(7-(3-chlorophenyl)-5-(3-methylpyrazin-2-yl)-7H-pyrrolo[2,3-d]pyrimidin-4-yl)-2,5-dimethylpiperazine-1-carboxylate]: the EC50 is less than 100 nM on TRPML1, 100 to 500 nM at TRPML2 and less than 100 nM on TRPML3.
Regarding `Cc1nccnc1-c1cn(-c2cc(F)cc(F)c2)c2ncnc(N3C[C@@H](C)N(C(=O)OC(C)(C)C)C[C@@H]3C)c12` [Compound 462, tert-butyl (2R,5S)-4-(7-(3,5-difluorophenyl)-5-(3-methylpyrazin-2-yl)-7H-pyrrolo[2,3-d]pyrimidin-4-yl)-2,5-dimethylpiperazine-1-carboxylate], the EC50 is less than 100 nM at TRPML1, 100 to 500 nM on TRPML2 and less than 100 nM at TRPML3.
For `Cc1nc(-n2cc(-c3ccccc3F)c3c(N4CCN(C(=O)OC(C)(C)C)C[C@@H]4C)ncnc32)sc1C#N` [Compound 463, tert-butyl (S)-4-(7-(5-cyano-4-methylthiazol-2-yl)-5-(2-fluorophenyl)-7H-pyrrolo[2,3-d]pyrimidin-4-yl)-3-methylpiperazine-1-carboxylate], the EC50 at TRPML1, on TRPML2 and on TRPML3 was less than 100 nM in each case.
With `CC(C)(C)OC(=O)N1CCN(c2ncnc3c2c(C2CCOCC2)cn3-c2cccc(Cl)c2)CC1` [Compound 465, tert-butyl 4-(7-(3-chlorophenyl)-5-(tetrahydro-2H-pyran-4-yl)-7H-pyrrolo[2,3-d]pyrimidin-4-yl)piperazine-1-carboxylate], the EC50 on TRPML1 was 100 to 500 nM; on TRPML2, 500 to 2000 nM; at TRPML3, less than 100 nM.
